According to patent US20220289715A1, “PESTICIDALLY ACTIVE PYRAZINE-AMIDE COMPOUNDS” (priority 2019, published 2022):

How the values were obtained:
Format in all cases: in vivo
[1] = test system: Plutella xylostella (Diamond Back Moth); test: Example B4: Plutella xylostella, artificial diet, 24-well; settings: 192 h, application rate of 200 ppm, eggs, 8 days after infestation, read-out: control in at least one of the two categories (mortality or growth inhibition)
Method in brief: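 Artificial diet in 24-well plates treated with aqueous dilutions of DMSO stocks, dried, then infested with diamondback moth eggs. Mortality and growth inhibition scored against untreated samples 8 days after infestation.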

[2] = test system: Euschistus heros (Neotropical Brown Stink Bug); test: Example B2: Euschistus heros, spray on soybean leaves; settings: 120 h, application rate of 200 ppm, N2 nymphs, 5 days after infestation, read-out: control in at least one of the two categories (mortality or growth inhibition)
Protocol: Example B2: Euschistus heros (Neotropical Brown Stink Bug)
Soybean leaves on agar in 24-well microtiter plates were sprayed with aqueous test solutions prepared from 10,000 ppm DMSO stock solutions. After drying the leaves were infested with N2 nymphs. The samples were assessed for mortality and growth inhibition in comparison to untreated samples 5 days after infestation.
The following compounds gave an effect of at least 80% control in at least one of the two categories (mortality or growth inhibition) at an application rate of 200 ppm: […]

[3] = test system: Diabrotica balteata (Corn Root Worm); test: Example B1: Diabrotica balteata, spray on maize sprouts; settings: 96 h, application rate of 200 ppm, L2 larvae, 4 days after infestation, read-out: control in at least one of the two categories (mortality or growth inhibition)
Method in brief: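 Maize sprouts on agar were sprayed with aqueous dilutions of DMSO stock solutions, dried, then infested with L2 larvae (6–10 per well). Mortality and growth inhibition were scored against untreated controls 4 days after infestation; test rate 200 ppm.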

[4] = test system: Myzus persicae (Green Peach Aphid); test: Example B10: Myzus persicae, sucrose solution, 96-well; settings: 120 h, application rate of 50 ppm, 5 days after infestation
Description: Example B10: Myzus persicae (Green Peach Aphid)
Test compounds prepared from 10,000 ppm DMSO stock solutions were applied by a liquid handling robot into 96-well microtiter plates and mixed with a sucrose solution. Parafilm was stretched over the 96-well microtiter plate and a plastic stencil with 96 holes was placed onto the plate. Aphids were sieved into the wells directly onto the Parafilm. The infested plates were closed with a gel blotting card and a second plastic stencil and then turned upside down. The samples were assessed for mortality 5 days after infestation.

[5] = test system: Plutella xylostella (Diamondback Moth); test: Example B9: Plutella xylostella, artificial diet, 96-well; settings: 216 h, application rate of 500 ppm, eggs/L1 larvae, 9 days after infestation
Method in brief: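 Test solutions made from 10,000 ppm DMSO stocks were applied to artificial diet in 96-well plates. After drying, ~30 eggs per well were placed on a suspended netted lid so hatching L1 larvae dropped onto the diet. Mortality was scored 9 days after infestation.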

[6] = test system: Chilo suppressalis (Striped Rice Stemborer); test: Example B3: Chilo suppressalis, artificial diet; settings: 144 h, application rate of 200 ppm, L2 larvae, 6 days after infestation, read-out: control in at least one of the three categories (mortality, anti-feedant effect, or growth inhibition)
Method in brief: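 Artificial diet was treated with aqueous dilutions made from 10,000 ppm DMSO stocks, dried, and infested with L2 larvae (6-8 per well). After 6 days, mortality, anti-feeding effect and growth inhibition were scored against untreated samples. Control was recorded when any one category exceeded the untreated sample.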

[7] = test system: Myzus persicae (Green Peach Aphid); test: Example B5: Myzus persicae, intrinsic activity; settings: 120 h, test rate of 12 ppm, 5 days after infestation
Description: Example B5: Myzus persicae (Green Peach Aphid). Intrinsic Activity
Test compounds prepared from 10,000 ppm DMSO stock solutions were applied by pipette into 24-well microtiter plates and mixed with sucrose solution. The plates were closed with a stretched Parafilm. A plastic stencil with 24 holes was placed onto the plate and infested pea seedlings were placed directly on the Parafilm. The infested plate was closed with a gel blotting paper and another plastic stencil and then turned upside down. The samples were assessed for mortality 5 days after infestation.

[8] = test system: Spodoptera littoralis (Egyptian Cotton Leaf Worm); test: Example B6: Spodoptera littoralis, spray on cotton leaf discs; settings: foliar, 72 h, application rate of 200 ppm, L1 larvae, 3 days after infestation, read-out: control in at least one of the three categories (mortality, anti-feedant effect, or growth inhibition)
Method in brief: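 Leaf discs on agar sprayed with aqueous solutions made from 10,000 ppm DMSO stocks, then infested after drying with five L1 larvae. Mortality, anti-feeding and growth inhibition scored against untreated samples 3 days after infestation.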

[9] = test system: Tetranychus urticae (Two-Spotted Spider Mite); test: Example B8: Tetranychus urticae, feeding/contact activity; settings: 192 h
Protocol: Example B8: Tetranychus urticae (Two-Spotted Spider Mite): Feeding/Contact Activity
Bean leaf discs on agar in 24-well microtiter plates were sprayed with aqueous test solutions prepared from 10,000 ppm DMSO stock solutions. After drying the leaf discs were infested with a mite population of mixed ages. The samples were assessed for mortality on mixed population (mobile stages) 8 days after infestation.

[10] = test system: Spodoptera littoralis (Egyptian Cotton Leaf Worm); test: Example B7: Spodoptera littoralis, uptake by lettuce roots from agar; settings: 144 h, test rate of 12.5 ppm, absorbed by lettuce roots, eggs, 6 days after infestation, read-out: control in at least one of the three categories (mortality, anti-feeding, or growth inhibition)
Description: Example B7: Spodoptera littoralis (Egyptian Cotton Leaf Worm)
Test compounds were applied by pipette from 10,000 ppm DMSO stock solutions into 24-well plates and mixed with agar. Lettuce seeds were placed onto the agar and the multi well plate was closed by another plate which contained also agar. After 7 days the compound was absorbed by the roots and the lettuce grew into the lid plate. The lettuce leaves were then cut off into the lid plate. Spodoptera eggs were pipetted through a plastic stencil onto a humid gel blotting paper and the lid plate was closed with it. The samples were assessed for mortality, anti-feedant effect and growth inhibition in comparison to untreated samples 6 days after infestation.
The following compounds gave an effect of at least 80% control in at least one of the three categories (mortality, anti-feeding, or growth inhibition) at a test rate of 12.5 ppm: […]

CC(NC(=O)c1cc(C(F)(F)F)cc(C(C)(C)C#N)c1)c1nccnc1-n1nccn1 (centres unmarked) [Compound P6, 3-(1-cyano-1-methyl-ethyl)-N-[1-[3-(triazol-2-yl)pyrazin-2-yl]ethyl]-5-(trifluoromethyl)benzamide]
≥ 80%: percent control (mortality or growth inhibition) at 200 ppm [1] | percent control (mortality or growth inhibition) at 200 ppm [2] | percent control (mortality or growth inhibition) at 200 ppm [3] | mortality at 50 ppm [4] | mortality at 500 ppm [5] | percent control (mortality, anti-feedant effect or growth inhibition) at 200 ppm [6] | mortality at 12 ppm [7] | percent control (mortality, anti-feedant effect or growth inhibition) at 200 ppm [8]

CC(NC(=O)c1cc(Cl)cc(Br)c1)c1nccnc1-n1nccn1 (centres unmarked) [Compound P35, 3-bromo-5-chloro-N-[1-[3-(triazol-2-yl)pyrazin-2-yl]ethyl]benzamide]
≥ 80%: percent control (mortality or growth inhibition) at 200 ppm [1] | mortality at 200 ppm [9] | percent control (mortality or growth inhibition) at 200 ppm [3] | mortality at 50 ppm [4] | mortality at 500 ppm [5] | percent control (mortality, anti-feedant effect or growth inhibition) at 200 ppm [6] | percent control (mortality, anti-feedant effect or growth inhibition) at 200 ppm [8]

CC(NC(=O)c1cc(OCC(F)F)cc(C(F)(F)F)c1)c1nccnc1-n1nccn1 (centres unmarked) [Compound P12, 3-(2,2-difluoroethoxy)-N-[1-[3-(triazol-2-yl)pyrazin-2-yl]ethyl]-5-(trifluoromethyl)benzamide]
≥ 80%: percent control (mortality or growth inhibition) at 200 ppm [1] | percent control (mortality or growth inhibition) at 200 ppm [2] | percent control (mortality, anti-feeding or growth inhibition) at 12.5 ppm [10] | mortality at 50 ppm [4] | mortality at 500 ppm [5] | percent control (mortality, anti-feedant effect or growth inhibition) at 200 ppm [6] | mortality at 12 ppm [7] | percent control (mortality, anti-feedant effect or growth inhibition) at 200 ppm [8]

CC(NC(=O)c1cc(C(F)F)cc(C(F)(F)F)c1)c1nccnc1-n1nccn1 (centres unmarked) [Compound P3, 3-(difluoromethyl)-N-[1-[3-(triazol-2-yl)pyrazin-2-yl]ethyl]-5-(trifluoromethyl)benzamide]
≥ 80%: percent control (mortality or growth inhibition) at 200 ppm [1] | percent control (mortality or growth inhibition) at 200 ppm [2] | percent control (mortality or growth inhibition) at 200 ppm [3] | mortality at 50 ppm [4] | mortality at 500 ppm [5] | percent control (mortality, anti-feedant effect or growth inhibition) at 200 ppm [6] | mortality at 12 ppm [7] | percent control (mortality, anti-feedant effect or growth inhibition) at 200 ppm [8]

C[C@H](NC(=O)c1cc(OC(F)F)cc(C(F)(F)F)c1)c1nccnc1-n1nccn1 [Compound P39, 3-(difluoromethoxy)-N-[(1S)-1-[3-(triazol-2-yl)pyrazin-2-yl]ethyl]-5-(trifluoromethyl)benzamide]
≥ 80%: percent control (mortality or growth inhibition) at 200 ppm [1] | percent control (mortality or growth inhibition) at 200 ppm [2] | percent control (mortality, anti-feeding or growth inhibition) at 12.5 ppm [10] | percent control (mortality or growth inhibition) at 200 ppm [3] | percent control (mortality, anti-feedant effect or growth inhibition) at 200 ppm [6] | mortality at 12 ppm [7] | percent control (mortality, anti-feedant effect or growth inhibition) at 200 ppm [8]
